In patent US12503456B2, “Substituted pyrimidines and 1,3,5-triazines as RHOJ inhibitors” (Fondazione Istituto Italiano Di Tecnologia, priority 2017, dated 2025):
Where two headings read alike, the source gives them in different places.

Assays:
Type in all cases: cell-based
[1] = system: melanoma cells; test: Cell viability assay (Cell Titer-Glo), inhibitor alone or with Cisplatin
Protocol: Cells were seeded at 10,000 cells/well in 96-well plates and incubated for 24 h at 37° C. with 5% CO2. […] The cell viability was determined using the Cell Titer-Glo luminescent cell viability assay kit (Promega, Madison, WI), according to the manufacturer's instructions. Luminescence was measured using a DTX 800 microplate reader (Coulter). The half-maximal inhibitory concentration (IC50) values were calculated using the GraphPad Prism software. The assay was done by conducting 3 independent experiments.

[2] = system: WM3248 melanoma cells; test: Flow cytometric analyses for apoptosis (Annexin V and PI); conditions: 24 hours, FIG. 1
Protocol: Approximately 1×10^6 melanoma cells treated with inhibitors for 24 hours and were then trypsinized and washed with PBS, the single-cell suspensions were incubated with Alexa Fluor-Annexin V and propidium iodide (PI) (V13245; Invitrogen) per the manufacturer's protocol and were subjected to flow cytometric analysis. In all cases, cell debris was gated out on the basis of forward scatter and side scatter analysis. Data was analyzed using FlowJo (Ashland, OR). Results are illustrated in FIG. 1, wherein WM3248 melanoma cells were treated with the indicated doses of compound 1 (ARN12405) and apoptosis was measured by flow cytometry using Annexin V and PI.

[3] = biological target: T1, RhoJ PAK interaction (Homo sapiens, UniProt Q9H4E5); test: Cdc42 activation assay (PAK1 PBD bead pull-down, immunoblot); conditions: cell lysates from WM3248 cells, PAK coupled beads, FIG. 2
T1 construct: host or cells: WM3248 cells
T1 sequence (Q9H4E5 1-211 limits assumed): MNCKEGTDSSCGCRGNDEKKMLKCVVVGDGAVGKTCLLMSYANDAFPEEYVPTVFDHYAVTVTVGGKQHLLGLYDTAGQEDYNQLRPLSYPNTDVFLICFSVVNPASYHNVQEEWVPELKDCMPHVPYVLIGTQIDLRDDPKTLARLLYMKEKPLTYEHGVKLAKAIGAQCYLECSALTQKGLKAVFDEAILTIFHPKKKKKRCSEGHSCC
Protocol: A Cdc42 activation assay was performed according the manufacturer's protocol (Cell Biolabs, San Diego, CA). Briefly, cells treated with the inhibitor were lysed and either loaded with GDP or GTPyS. Agarose beads conjugated with the PAK1 PBD domain pulled down Cdc42, Rac1, or RhoJ only when GTP-bound. Lysates were then immunoblotted with indicated Abs. Results are illustrated in FIG. 2. […] Briefly, cells were treated with compound 1 (ARN12405) and cell lysates were prepared and incubated with PAK coupled beads. Immunoprecipitated proteins were subjected to SDS PAGE and immunoblotted with a (A) RhoJ antibody, (B) Cdc42 antibody, (C) Rac1 antibody, (D) Cells were treated with one of a panel of RhoJ interaction inhibitors at a concentration of 10 μm or 50 μm (see FIG. 2, panels A-D). Lysates were prepared, incubated with PAK coupled beads, and immunoprecipitated proteins were immunoblotted with a RhoJ antibody.

[4] = inhibitor (1.25-50 μM) with Cisplatin at 20 μM, 24 hours, Cell Titer-Glo, 3 independent experiments, read-out: IC50 (CisPt)

In the case of `Clc1cccc(Nc2cc(-c3ccncc3)nc(C3CCCNC3)n2)c1` (stereo not shown) [Compound 5], the IC50 [1, 4] is reported as 42.3 µM.

`CN(C)c1ccc(Nc2cc(-c3ccccc3)nc(C3CCNCC3)n2)cc1` [Compound 12, N4,N4-dimethyl-N1-[6-phenyl-2-(4-piperidyl)pyrimidin-4-yl]benzene-1,4-diamine] showed an IC50 ([1]; 24 h, read-out: IC50 (CisPt)) of 86.3 µM.

`COc1ccc(Nc2cc(-c3ccccc3)nc(C3CCNCC3)n2)cc1` [Compound 13, N-(4-methoxyphenyl)-6-phenyl-2-(4-piperidyl)pyrimidin-4-amine] gave an IC50 [1, 4] of 36.7 µM.

`CN(C)c1cccc(Nc2cc(-c3ccccc3)nc(C3CCNCC3)n2)c1` [Compound 14, N3,N3-dimethyl-N1-[6-phenyl-2-(4-piperidyl)pyrimidin-4-yl]benzene-1,3-diamine] gave an IC50 [1, 4] of 17.2 µM.

For `COc1cccc(Nc2cc(-c3ccccc3)nc(C3CCNCC3)n2)c1` [Compound 15, N-(3-methoxyphenyl)-6-phenyl-2-(4-piperidyl)pyrimidin-4-amine], the IC50 [1, 4] was 22.2 µM.

For `CN(C)c1cccc(Nc2cc(-c3ccccc3)nc(C3CCCNC3)n2)c1` (stereo not shown) [Compound 10, N3,N3-dimethyl-N1-[6-phenyl-2-(3-piperidyl)pyrimidin-4-yl]benzene-1,3-diamine], the IC50 ([1]; 24 h, read-out: IC50 (alone)) was 45 µM.

In the case of `Clc1ccc(Nc2cc(-c3ccccn3)nc(C3CCCNC3)n2)cc1` (stereo not shown) [Compound 3], the IC50 [1, 4] is reported as 38.2 µM.

`Fc1ccc(-c2cc(Nc3ccccc3)nc(C3CCCNC3)n2)cc1` (stereo not shown) [Compound 7] was tested, and the IC50 [1, 4] was 32 µM.

With `CN(C)c1ccc(Nc2cc(-c3ccccc3)nc(C3CCOCC3)n2)cc1` [Compound 16, N4,N4-dimethyl-N1-(6-phenyl-2-tetrahydropyran-4-yl-pyrimidin-4-yl)benzene-1,4-diamine] the IC50 ([1]; 24 h, read-out: IC50 (alone)) was > 50 µM and the IC50 [1, 4] was > 50 µM.

In the case of `COc1ccc(-c2cc(Nc3ccc(Cl)cc3)nc(C3CCCNC3)n2)cc1` (stereo not shown) [Compound 6], the IC50 [1, 4] is reported as 17 µM.

With `COc1ccc(Nc2cc(-c3ccccc3)nc(C3CCOCC3)n2)cc1` [Compound 17, N-(4-methoxyphenyl)-6-phenyl-2-tetrahydropyran-4-yl-pyrimidin-4-amine] the IC50 ([1]; 24 h, read-out: IC50 (alone)) was > 50 µM and the IC50 [1, 4] was > 50 µM.

For `COc1cccc(Nc2cc(-c3ccccc3)nc(C3CCCNC3)n2)c1` (stereo not shown) [Compound 11, N-(3-methoxyphenyl)-6-phenyl-2-(3-piperidyl)pyrimidin-4-amine], the IC50 [1, 4] was 27.8 µM.

For `COc1ccc(Nc2cc(-c3ccccc3)nc(C3CCCNC3)n2)cc1` (stereo not shown) [Compound 9, N-(4-methoxyphenyl)-6-phenyl-2-(3-piperidyl)pyrimidin-4-amine], the IC50 ([1]; 24 h, read-out: IC50 (alone)) was > 50 µM and the IC50 [1, 4] was > 50 µM.

Molecule `Clc1ccc(Nc2cc(-c3ccccc3)nc(C3CCCNC3)n2)cc1` (stereo not shown) [Compound 4] has an IC50 [1, 4] of 7 µM.

With `Clc1ccc(Nc2cc(-c3cccnc3)nc(C3CCCNC3)n2)cc1` (stereo not shown) [Compound 2] the IC50 [1, 4] was 11.5 µM.

In the case of `Clc1ccc(Nc2cc(-c3ccncc3)nc(C3CCCNC3)n2)cc1` (stereo not shown) [Compound 1], the IC50 [1, 4] is reported as 12.8 µM, the “apoptosis measured by flow cytometry using AnnexinV and PI” value [2] is reported as “apoptosis induced” and the “RhoJ PAK interaction in cell lysates (SDS PAGE and immunoblotting)” value [3] is reported as “block of RhoJ PAK interaction”.

`CN(C)c1ccc(Nc2cc(-c3ccccc3)nc(C3CCCNC3)n2)cc1` (stereo not shown) [Compound 8, N1,N1-dimethyl-N4-[6-phenyl-2-(3-piperidyl)pyrimidin-4-yl]benzene-1,4-diamine] showed an IC50 [1, 4] of 31.4 µM.
